Assay results from ChEMBL document CHEMBL3351731, “Synthesis and cytotoxicity evaluation of 4-amino-4-dehydroxylarctigenin derivatives in glucose-starved A549 tumor cells” (Bioorg Med Chem Lett, 2015).

Legend:
[1] = system: A549; assay: Cytotoxicity against human A549 cells after 4 days under glucose-starved conditions by MTT assay; format: functional, cell-based; conditions: A549, 96 h
[2] = system: A549; assay: Cytotoxicity against human A549 cells after 4 days under normal conditions by MTT assay; format: cell-based; conditions: A549, 96 h

COc1cc(C[C@H]2C(=O)OC[C@@H]2Cc2ccc(OC)c(OC)c2)ccc1N
IC50 [1]: 2.85 µM | IC50 [2]: > 50 µM

COc1cc(C[C@H]2C(=O)OC[C@@H]2Cc2ccc(OC)c(OC)c2)ccc1NC(=O)c1ccccc1
IC50 [1]: > 50 µM | IC50 [2]: > 50 µM

COc1cc(C[C@H]2C(=O)OC[C@@H]2Cc2ccc(OC)c(OC)c2)ccc1NC(=O)Cc1ccccc1
IC50 [1]: > 50 µM | IC50 [2]: > 50 µM

COc1cc(C[C@H]2C(=O)OC[C@@H]2Cc2ccc(OC)c(OC)c2)ccc1NC(C)=O
IC50 [1]: > 50 µM | IC50 [2]: > 50 µM

CCC(=O)Nc1ccc(C[C@H]2C(=O)OC[C@@H]2Cc2ccc(OC)c(OC)c2)cc1OC
IC50 [1]: > 50 µM | IC50 [2]: > 50 µM

COc1cc(C[C@H]2C(=O)OC[C@@H]2Cc2ccc(OC)c(OC)c2)ccc1Nc1ccccc1
IC50 [1]: > 50 µM | IC50 [2]: > 50 µM

COc1ccc(Nc2ccc(C[C@H]3C(=O)OC[C@@H]3Cc3ccc(OC)c(OC)c3)cc2OC)cc1
IC50 [1]: > 50 µM | IC50 [2]: > 50 µM

COc1cc(C[C@H]2C(=O)OC[C@@H]2Cc2ccc(OC)c(OC)c2)ccc1Nc1ccc([N+](=O)[O-])cc1
IC50 [1]: 22.1 µM | IC50 [2]: > 50 µM

COc1cc(C[C@H]2C(=O)OC[C@@H]2Cc2ccc(OC)c(OC)c2)ccc1Nc1ccc(F)cc1
IC50 [1]: > 50 µM | IC50 [2]: > 50 µM

COc1cc(C[C@H]2C(=O)OC[C@@H]2Cc2ccc(OC)c(OC)c2)ccc1NCc1ccccc1
IC50 [1]: > 50 µM | IC50 [2]: > 50 µM

COc1cccc(C[C@H]2C(=O)OC[C@@H]2Cc2ccc(OC)c(OC)c2)c1
IC50 [1]: > 50 µM | IC50 [2]: > 50 µM

COc1cc(C[C@H]2C(=O)OC[C@@H]2Cc2ccc(OC)c(OC)c2)ccc1O [ARCTIGENIN]
IC50 [1]: 6.57 µM | IC50 [2]: > 50 µM
